The text below walks through data of EP3072514A1, “Novel oral anticoagulants (NOACs) for preventing development and aggravation of atrial fibrillation” (Université Pierre et Marie Curie - Paris 6 (UPMC), priority 2015, dated 2016).

Series [1] deals with rats with occlusion of left coronary artery followed by reperfusion (I/R). In words: Echocardiographic evaluation of left atrium and left ventricle in rats after ischemia/reperfusion (I/R). In kind it is in vivo, Male OFA Sprague-dawley rats. An excerpt: • Figure 1 is a combination of two graphs showing left atrium (LA) area after one month of treatment with DTI Dabigatran (A) or S35792 (B). Vehicle (V) is 60% H2O/40% PEG 300 for dabigatran and saline for S35972. Treatment of rats started just after thoracotomy without (Sham) or with occlusion of left coronary artery followed by reperfusion (I/R). […] Vehicle (V) is 60% H2O/40% PEG 300 for dabigatran and saline for S35972. Treatment of rats started just after thoracotomy without (Sham) or with occlusion of left coronary artery followed by reperfusion (I/R). Results are presented as mean +/- S.E.M. * P<0.05; ** P<0.001, *** P<0.001 vs Sham; #P<0.05 vs untreated I/R. • Figure 3 is a combination of two graphs showing thrombin time (TT), which reflects anticoagulant activity, and plasma concentrations of Dabigatran (A) and S35792 (B) in rats after throracotomy with occlusion of left coronary artery followed by reperfusion (I/R). Vehicle (V) is 60% H2O/40% PEG 300 for dabigatran and saline for S35972. Tests were carried out on blood collected by cardiac puncture at sacrifice (i.e. for Dabigatran, 90 minutes after last oral administration). DTI plasma levels are quantified using LC-MS/MS. TT are expressed as mean +/- S.E.M with reference to the mean value of sham animals that underwent thoracotomy only. *** P<0.001 vs untreated I/R. • Figure 4 is a combination of three graphs showing left atrium (LA) area (A) and diameter (B) and left ventricle end-diastolic (LVED) diameter (C) after two months of treatment with S35972. Treatment of rats started just after thoracotomy without (Sham) or with occlusion of left coronary artery followed by reperfusion (I/R). LA area was measured by bidimensional echocardiography. LA and LVED diameters were measured in time-motion mode. Results are presented as mean +/- S.E.M. *P<0.05, **P<0.01 and *** P<0.001 vs Sham; ^#P<0.05 ^###P<0.001 vs untreated I/R. • Figure 5 is a graph showing the impact of S35972 administration during two months on the duration of an episode of AF in rats undergone thoracotomy without (Sham) or with occlusion of left coronary artery followed by reperfusion (I/R). AF duration is measured as the time between the end of the electric stimulation and the return to sinusoidal rhythm. […] Rats undergone thoracotomy without (Sham) or with occlusion of left coronary artery followed by reperfusion (I/R). Expression of mRNA was measured with real-time qPCR. […] Treatment of rats started one month post thoracotomy without (Sham) or with occlusion of left coronary artery followed by reperfusion (I/R). LA area was measured by bidimensional echocardiography. LVED and LA diameters were measured in time-motion mode. […] Rats undergone thoracotomy without (Sham) or with occlusion of left coronary artery followed by reperfusion (I/R). AF duration is measured as the time between the end of the electric stimulation and return to sinusoidal rhythm. Results are presented as mean +/- S.E.M.
Animals were anesthetized with 30 mg/kg sodium pentobarbital, and then intubated and ventilated at 60 respirations/min while body temperature was maintained at 37°C. Rats underwent thoracotomy and their left coronary artery was either left intact (Sham) or occluded with a 4.0 silk suture at 1 mm from the artery origin. Ischemia was maintained for 30 min and the clamp was removed to initiate a definitive reperfusion phase. […]

The nature of series [2]: Plasma concentration by LC-MS/MS in I/R rats. Set-up: species or system Male OFA Sprague-dawley rats. The note with it: rat, in vivo, sc. An excerpt: • Figure 1 is a combination of two graphs showing left atrium (LA) area after one month of treatment with DTI Dabigatran (A) or S35792 (B). Vehicle (V) is 60% H2O/40% PEG 300 for dabigatran and saline for S35972. Treatment of rats started just after thoracotomy without (Sham) or with occlusion of left coronary artery followed by reperfusion (I/R). Results are presented as mean +/- S.E.M, *P<0.05, **P<0.01 and *** P<0.001 vs Sham; ^##P<0.01 and ^###P<0.001 vs untreated I/R. • Figure 2 is a combination of graphs showing left ventricular end-diastolic (LVED) diameter and fractional shortening (FS) after one month of treatment with Dabigatran (A) or S35792 (B). Vehicle (V) is 60% H2O/40% PEG 300 for dabigatran and saline for S35972. Treatment of rats started just after thoracotomy without (Sham) or with occlusion of left coronary artery followed by reperfusion (I/R). Results are presented as mean +/- S.E.M. * P<0.05; ** P<0.001, *** P<0.001 vs Sham; #P<0.05 vs untreated I/R. • Figure 3 is a combination of two graphs showing thrombin time (TT), which reflects anticoagulant activity, and plasma concentrations of Dabigatran (A) and S35792 (B) in rats after throracotomy with occlusion of left coronary artery followed by reperfusion (I/R). Vehicle (V) is 60% H2O/40% PEG 300 for dabigatran and saline for S35972. […] DTI plasma levels are quantified using LC-MS/MS. TT are expressed as mean +/- S.E.M with reference to the mean value of sham animals that underwent thoracotomy only. *** P<0.001 vs untreated I/R. • Figure 4 is a combination of three graphs showing left atrium (LA) area (A) and diameter (B) and left ventricle end-diastolic (LVED) diameter (C) after two months of treatment with S35972. […] LA area was measured by bidimensional echocardiography. LA and LVED diameters were measured in time-motion mode. […] AF duration is measured as the time between the end of the electric stimulation and the return to sinusoidal rhythm. […] Expression of mRNA was measured with real-time qPCR. […] Expression of mRNA was measured with real-time qPCR. […]

A further series relates to blood coagulation. In words: Thrombin time (TT) on blood collected by cardiac puncture at sacrifice of I/R rats. Type of series: in vivo, Male OFA Sprague-dawley rats. The note with it: subcutaneous osmotic minipump, with reference to the mean value of sham animals. The text has this:
• Figure 1 is a combination of two graphs showing left atrium (LA) area after one month of treatment with DTI Dabigatran (A) or S35792 (B). Vehicle (V) is 60% H2O/40% PEG 300 for dabigatran and saline for S35972. Treatment of rats started just after thoracotomy without (Sham) or with occlusion of left coronary artery followed by reperfusion (I/R). […] Vehicle (V) is 60% H2O/40% PEG 300 for dabigatran and saline for S35972. Treatment of rats started just after thoracotomy without (Sham) or with occlusion of left coronary artery followed by reperfusion (I/R). Results are presented as mean +/- S.E.M. * P<0.05; ** P<0.001, *** P<0.001 vs Sham; #P<0.05 vs untreated I/R. • Figure 3 is a combination of two graphs showing thrombin time (TT), which reflects anticoagulant activity, and plasma concentrations of Dabigatran (A) and S35792 (B) in rats after throracotomy with occlusion of left coronary artery followed by reperfusion (I/R). Vehicle (V) is 60% H2O/40% PEG 300 for dabigatran and saline for S35972. […] DTI plasma levels are quantified using LC-MS/MS. TT are expressed as mean +/- S.E.M with reference to the mean value of sham animals that underwent thoracotomy only. *** P<0.001 vs untreated I/R. • Figure 4 is a combination of three graphs showing left atrium (LA) area (A) and diameter (B) and left ventricle end-diastolic (LVED) diameter (C) after two months of treatment with S35972. […] LA area was measured by bidimensional echocardiography. LA and LVED diameters were measured in time-motion mode. […] AF duration is measured as the time between the end of the electric stimulation and the return to sinusoidal rhythm. […] Expression of mRNA was measured with real-time qPCR. […] Expression of mRNA was measured with real-time qPCR. […] Expression of mRNA was measured with real-time qPCR. […] LA area was measured by bidimensional echocardiography. LVED and LA diameters were measured in time-motion mode. […] AF duration is measured as the time between the end of the electric stimulation and return to sinusoidal rhythm. […]

Where [3] appears, read: 6 mg/kg/d during one month, treatment started one month after the I/R episode.
The mark [4] stands for this setting: 6 mg/kg/day for 8 weeks, started just after I/R.
The mark [5] stands for this setting: four weeks post-I/R, one month of treatment started just after I/R.

As to “4-oxo-3-(2-pyridin-2-ylethylamino)-4,6,7,8-tetrahydro-pyrrolo[1,2-a]pyrazine-6-carboxylic acid 2-ethylcarbamoyl methoxy-benzylamide [S35972]”, the left atrium area result in series [1] (3 mg/kg/day for 8 weeks, started just after I/R) is given as “decreases the left atrium area”. Besides, in series [1] (setting [3]), the left atrium diameter entry was “decreased to an intermediate value between Sham and I/R rats”; the “left ventricle end-diastolic diameter” value is “had no effect”. For the same substance, the left atrium area result in series [1] (6 mg/kg/d during one month, treatment started one month after the I/R episode (established atrial dilatation)) was “significantly reduced”. Moreover, in series [1] (setting [4]), the atrial diameter result is “significantly reduces”, the left atrium area result is listed as “decreases the left atrium area” and the “ventricular diameter (LVED diameter)” value is “significantly reduces”. For the same substance, in series [1] (setting [5]), the “dilatation of left atrium (left atrium (LA) area)” value was “prevent the dilatation of left atrium”, the “ventricular diameter (LVED diameter)” value is “do not impact” and the “ventricular function (fractional shortening)” value is given as “do not impact”. In addition, the plasma concentration in series [2] (3 mg/kg/day) came to 24.1 ± 5.7 ng/mL. The plasma concentration in series [2] (6 mg/kg/day) stood at 57.2 ± 24.4 ng/mL. The “thrombin time increases by a factor” value with blood coagulation (3 mg/kg/day) is recorded as 3. Further, the “thrombin time increases by a factor” value with blood coagulation (6 mg/kg/day) was 3.
